Laboratory results as given in US12329738B2, “Urolithin A and a composition containing same for external use in inflammations of various etiologies” (WARSZAWSKI UNIWERSYTET MEDYCZNY, priority 2018, dated 2025).

Legend:
[1] = test system: NHDF fibroblasts (human normal skin fibroblasts); conditions: comparative studies by the inventors
Method: NHDF fibroblasts (human normal skin fibroblasts) were cultured in the DMEM medium supplemented with 10% FBS and a mixture of antibiotics—penicillin and streptomycin at 37° C., 5% CO2. […] After incubation with the compounds, the cells were washed twice with warm medium. The effect on cell viability was assessed using a standard MTT test.

TNF-alpha [2] = assay: TNF-alpha production by THP-1 derived macrophages (ELISA); assay type: cell-based, human; conditions: 40 μM; LPS stimulation; FIG. 13
Method: (§1) Monocytes of the THP-1 line were cultured in RPMI 1640 medium supplemented with 10% FBS and 2 mM glutamine. For transformation of monocytes into macrophages, the cells were treated with 12.5 ng/mL PMA (phorbol 12-myristate 13-acetate) for 48 hours, then washed and incubated for 24 hours in a culture medium without PMA. After this time, urolithin A, urolithin B, iso-urolithin A and the corresponding glucuronides (GUA, GUB and GiUA) were added to the cells at a concentration of 40 μM. After 1 hour of incubation with the compounds, the cells were stimulated with LPS from Escherichia coli (10 ng/mL).
(§2) To assess the level of TNF-alpha production, the cells were incubated for 6 hours, to assess the expression of mRNA for TNF-alpha, the cells were incubated for 24 hours, to assess the effect on ERK1/2 phosphorylation, the cells were incubated for 35 minutes.
(§3) The level of TNF-alpha in the culture medium was determined using the immunochemical ELISA method (BD biosciences). Evaluation of the expression of mRNA for TNF-alpha was performed using real time PCR. After 24 hours of incubation, RNA was isolated using NucleoSpin RNA Clean-up (Macherey-Nagel). The amount and quality of isolated RNA was determined using 2100 Bioanalyzer (Agilent Technologies). The expression level of mRNA for TNF-α was determined using Brilliant II SYBR Green QPCR Kit and Aria Mx Real-Time PCR thermocycler (Agilent Technologies). The following were used as primers for TNF-alpha: forward: 5′-[…]-3′, reverse: 5′-[…]-3′. Beta-actin (ACTB) was used as the housekeeping gene; primer forward: 5′-[…]-3′, reverse: 5′-[…]-3′).
(§4) The obtained results of experiments on in vitro models were analyzed using the Statistica 13 program (StatSoft, Inc., Tulsa, OK, USA) and presented as mean values±SEM. Statistical significance was set at P≤0.05. The results with established normal distribution in the D'Agostin and Pearson test were prepared using analysis of variance (ANOVA). Parametric post-hoc analysis was performed using Dunnett's test.

mRNA for TNF-alpha = assay: TNF-alpha mRNA expression in THP-1 derived macrophages (real time PCR); assay type: cell-based, human; conditions: 40 μM; LPS stimulation; FIG. 14
Method: as §1, §2, §3, §4

ERK1/2 = ERK1/2 phosphorylation in THP-1 derived macrophages (Western blotting); assay type: cell-based, human; conditions: 40 μM; LPS 10 ng/mL, 35 min; FIG. 15
Method: Monocytes of the THP-1 line were cultured in RPMI 1640 medium supplemented with 10% FBS and 2 mM glutamine. For transformation of monocytes into macrophages, the cells were treated with 12.5 ng/mL PMA (phorbol 12-myristate 13-acetate) for 48 hours, then washed and incubated for 24 hours in a culture medium without PMA. After this time, urolithin A, urolithin B, iso-urolithin A and the corresponding glucuronides (GUA, GUB and GiUA) were added to the cells at a concentration of 40 μM. After 1 hour of incubation with the compounds, the cells were stimulated with LPS from Escherichia coli (10 ng/mL). To assess the level of TNF-alpha production, the cells were incubated for 6 hours, to assess the expression of mRNA for TNF-alpha, the cells were incubated for 24 hours, to assess the effect on ERK1/2 phosphorylation, the cells were incubated for 35 minutes. […] The obtained results of experiments on in vitro models were analyzed using the Statistica 13 program (StatSoft, Inc., Tulsa, OK, USA) and presented as mean values±SEM. Statistical significance was set at P≤0.05. The results with established normal distribution in the D'Agostin and Pearson test were prepared using analysis of variance (ANOVA). Parametric post-hoc analysis was performed using Dunnett's test.

TNF-alpha [3] = assay: TNF-alpha production by macrophages from human peripheral blood monocytes (ELISA); assay type: cell-based; conditions: 40 μM; LPS 100 ng/mL, 24 h; FIG. 16
Method: Monocytes were isolated from peripheral human blood by a standard method using dextran sedimentation and Ficoll Hypaque gradient centrifugation. After isolation, monocytes were suspended in RPMI 1640 medium supplemented with L-glutamine, HEPES, streptomycin, amphotericin and gentamicin, and 20% autologous serum. Cell culture was carried out under these conditions for 7 days. […] After 24h, TNF-alpha level in the medium was determined using the immunochemical ELISA method (BD biosciences). The obtained results of experiments on in vitro models were analyzed using the Statistica 13 program (StatSoft, Inc., Tulsa, OK, USA) and presented as mean values±SEM. Statistical significance was set at P≤0.05. The results with established normal distribution in the D'Agostin and Pearson test were prepared using analysis of variance (ANOVA). Parametric post-hoc analysis was performed using Dunnett's test.

tyrosinase = biological target: T1, tyrosinase (Mus musculus, UniProt P11344); conditions: B16 melanoma cells; cited from earlier work
T1 sequence (P11344 19-533): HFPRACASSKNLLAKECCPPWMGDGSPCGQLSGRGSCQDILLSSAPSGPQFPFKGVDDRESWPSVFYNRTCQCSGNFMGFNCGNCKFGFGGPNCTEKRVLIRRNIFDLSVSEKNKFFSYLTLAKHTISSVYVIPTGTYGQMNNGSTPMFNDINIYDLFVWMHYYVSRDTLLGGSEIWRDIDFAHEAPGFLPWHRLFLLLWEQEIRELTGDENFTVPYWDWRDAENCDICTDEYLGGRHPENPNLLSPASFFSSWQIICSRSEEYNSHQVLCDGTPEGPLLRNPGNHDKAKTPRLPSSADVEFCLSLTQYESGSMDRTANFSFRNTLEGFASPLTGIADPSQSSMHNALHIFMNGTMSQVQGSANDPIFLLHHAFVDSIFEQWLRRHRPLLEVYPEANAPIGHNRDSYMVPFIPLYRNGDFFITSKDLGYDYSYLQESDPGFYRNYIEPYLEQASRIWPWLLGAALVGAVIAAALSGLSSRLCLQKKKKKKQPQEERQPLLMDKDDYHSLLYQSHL

Row | Compound | Antiproliferative activity on human skin fibroblast cells [1] | TNF-alpha production by THP-1 derived macrophages (TNF-alpha [2]) | TNF-alpha mRNA expression in THP-1 derived macrophages (mRNA for TNF-alpha) | ERK1/2 kinase phosphorylation in THP-1 derived macrophages (ERK1/2) | Inhibition of TNF-alpha production by macrophages from human peripheral blood monocytes (TNF-alpha [3]) | Tyrosinase activity (depigmentation) (tyrosinase)
1 | CC(=O)Oc1ccc2c(c1)oc(=O)c1cc(O)ccc12 [3-acetyl-urolithin A] | neither urolithin A, nor 8-acetyl-urolithin A, nor 3-acetyl-urolithin A showed antiproliferative activity | – | – | – | – | –
2 | CC(=O)Oc1ccc2c(c1)c(=O)oc1cc(O)ccc12 [8-acetyl-urolithin A] | neither urolithin A, nor 8-acetyl-urolithin A, nor 3-acetyl-urolithin A showed antiproliferative activity | – | – | – | – | –
3 | O=c1oc2cc(O)ccc2c2ccccc12 [urolithin B] | – | did not show any activity | inactive | did not exhibit such activity | inactive | suppressing tyrosinase activity
